Experimental data as given in publication PMC3340893, “IspE Inhibitors Identified by a Combination of In Silico and In Vitro High-Throughput Screening” (PLoS ONE, 2012).
Values after ≈ are worked out from the molar mass of the structure shown. Where two headings read alike, the source gives them in different places.

Key:
EcIspE [1] = target: T1, EcIspE (Escherichia coli, UniProt P62615); assay: IspE inhibition assay (Promega Kinase-Glo Plus), IC50 determination; format: biochemical; conditions: for Ligand efficiency: from IC50 converted to Ki assuming competitive inhibition of the cytidine binding site, KM 150 µM, [CDP-ME] 500 µM, T = 298 K; for fold weaker IC50 / loss in potency compared to the screening hit: relative to parent screening hit (4, 7 or 8); for EcIspE inhibition at 100 µM: typical protein kinase inhibitors evaluated as possible standard inhibitor
T1 construct: made in house
Procedure: Inhibition of EcIspE was measured using the Promega Kinase-Glo®-Plus kit. This kit determines the remaining ATP concentration after the kinase reaction took place by converting luciferin to oxyluciferin via an ATP-dependent luciferase. Oxyluciferin is chemoluminescent and can be detected using a plate reader.
The assay was performed under the following conditions: 90 µM ATP, 500 µM CDP-ME, 200 nM EcIspE in 100 mM Tris-HCl, pH 8.5, 20 mM MgCl2, 2% DMSO, 0.01% (v/v) Triton-X 100. The reaction was carried out in 384-well plates with 25 µl reaction volumes, incubated at 25°C for 180 min, and stopped with 25 µl Kinase-Glo® Plus reagent (Promega, Madison, USA). The chemoluminescence signal was developed for 45 min at room temperature and read out in a plate reader (TopCount, PerkinElmer, USA). To monitor assay performance and to control for inhibition of the luciferase of the Kinase-Glo® Plus kit wells containing either the reaction mixture plus compound 3 or 4 or all ingredients except for CDP-ME were also prepared. Further, as quality control for each assay plate, wells containing the kinase reaction without an inhibitor, and wells containing only ATP in assay buffer were prepared. The signals of these wells were averaged (AVHIGH, AVLOW) and used to calculate the signal to noise ratio (AVHIGH/AVLOW) and Z′ (1− [drawing 1]; SD: standard deviation). The best performance was obtained with an ATP concentration of 90 µM and a CDP-ME concentration of 500 µM (Signal to noise ratio = 3.3, Z′ = 0.69 in assay development). In this setup the ATP and CDP-ME concentrations are ∼0.2×K M and ∼3×K M, respectively. Consequently, the assay can be used to detect ligands binding to both the substrate and co-factor binding sites.
(§1) Compounds were dissolved in DMSO at concentrations between 10 and 200 mM (depending on maximal solubility) and added to the reaction mixture with a final concentration of 2% DMSO (v/v). For compounds where IspE inhibition was indicated, a 1∶3 dilution series in DMSO was prepared and tested in the same endpoint assay. IC50 values were derived by non-linear regression with a 4-parameter fit to the following equation in GraFit (Erithacus Software Ltd., Surrey, UK). [drawing 2] where y: measured signal of assay: ymax: saturated signal: [I]: inhibitor concentration: slope: Hill slope; ymin: background signal of assay.
As the assay was performed at relatively high substrate concentrations (∼3×K M) for ligand efficiency calculations, the measured IC50 values were first converted to K i values.
Ligand efficiencies were calculated using the formula: [drawing 4] where T = 298 K and R = the ideal gas constant.

[2] = Solubility limit in the assay; format: physicochemical; conditions: EcIspE assay reaction mixture, aqueous buffer, kinetic from dmso stock; highest concentration tested in the EcIspE assay
Description: In the modelled binding mode of ligand 4 the pyrrolopyridine scaffold is sandwiched between Tyr24 and Tyr175 and potentially interacts with His25 via three hydrogen bonds (Figure 12a). In addition, the charged amino group in the tetrahydropyrimidinium ring may form a salt bridge interaction with Asp130. Commercially available analogues of this compound were selected to probe possible interactions with Asp130, His25 and the backbone of Lys145 (Figure 13, Table 4). […] Accordingly, these compounds can no longer form a salt bridge with Asp130. In the predicted binding mode of 12 a neutral hydrogen-bond via the thio-urea group is formed with Asp130 instead while 13 is assumed to interact with Lys9 NZ and Thr171 OG1 (Figure 12c and d). […] In order to accommodate 14 in the binding site in a similar binding mode as 4, structural rearrangements are required to avoid a steric clash of the cyclo-propyl moiety with the backbone carbonyl group of Lys145 (Figure 2). An alternative binding mode for this compound is also possible in which the core is flipped by 180° compared to 4 but still forms hydrogen bonds with His25 (Figure 12b). In this orientation, both substituents are solvent exposed.
as §1

EcIspE [3] = target: T1, EcIspE; parameters: method as in PMID 18033714, PMID 18633530, PMID 18422643, PMID 17361977, PMID 21903402; conditions: substrate-like IspE inhibitors, Figure 4; cited from earlier work
[4] = average of three independent measurements, SD in brackets, 90 µM ATP, 500 µM CDP-ME, 200 nM EcIspE, pH 8.5, n.i. = no inhibition at solubility limit measured, read-out: IC50 [M] (SD)

T1 sequence (P62615 whole entry): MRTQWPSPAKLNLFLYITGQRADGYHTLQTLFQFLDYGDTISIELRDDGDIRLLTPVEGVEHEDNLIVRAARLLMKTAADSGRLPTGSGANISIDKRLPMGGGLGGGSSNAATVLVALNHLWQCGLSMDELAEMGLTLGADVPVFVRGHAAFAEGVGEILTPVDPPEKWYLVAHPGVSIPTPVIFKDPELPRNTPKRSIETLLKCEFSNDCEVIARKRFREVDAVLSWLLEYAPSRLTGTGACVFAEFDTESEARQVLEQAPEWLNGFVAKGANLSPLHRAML

Row | Compound | IC50 (EcIspE [1]; [4]) [M] | Ligand efficiency (EcIspE [1]) | further results
1 | Nc1n[nH]c(NCc2cccnc2)n1 [Compound 1] | 0.0018 | 0.33 kcal/mol per non-hydrogen atom | 
2 | CNc1ncc(Br)nc1N [Compound 2] | 0.00059 | 0.53 kcal/mol per non-hydrogen atom | 
3 | Oc1csc(Nc2nccs2)n1 [Compound 3] |  | 0.50 kcal/mol per non-hydrogen atom | IC50 (EcIspE [1]; read-out: IC50): 0.00016 M
4 | C1=C(c2c[nH]c3ncccc23)CCNC1 [Compound 4] |  | 0.32 kcal/mol per non-hydrogen atom | IC50 (EcIspE [1]): 0.0015 M
5 | Nc1nc(N)c2[nH]c(=O)[nH]c2n1 [Compound 5] | 0.0023 | 0.37 kcal/mol per non-hydrogen atom | 
6 | Nc1cc(-c2ccco2)[nH]n1 [Compound 6] | 0.0035 | 0.28 kcal/mol per non-hydrogen atom | 
7 | Cc1[nH]c2ccccc2c1C(Nc1ccccn1)c1ccccc1O (centres unmarked) [Compound 7] |  | 0.29 kcal/mol per non-hydrogen atom | IC50 (EcIspE [1]; read-out: IC50): 1.9e-05 M
8 | O=c1c2ccccc2nc(-c2cccnc2)n1-c1ccc(Br)cn1 [Compound 8] |  | 0.35 kcal/mol per non-hydrogen atom | IC50 (EcIspE [1]): 2.5e-06 M
9 | c1csc(NC2CCCCC2)n1 [Compound 9] | 0.0094 | 0.30 kcal/mol per non-hydrogen atom | 
10 | Oc1ccccc1CNc1nccs1 [Compound 10] | 0.0066 | 0.27 kcal/mol per non-hydrogen atom | 
11 | CC(C)Nc1nccs1 [Compound 11] | 0.002 | 0.50 kcal/mol per non-hydrogen atom | 
12 | CNC(=S)N1CC=C(c2c[nH]c3ncccc23)CC1 [Compound 12] | 0.00083 | 0.27 kcal/mol per non-hydrogen atom | 
13 | C1=C(c2c[nH]c3ncccc23)CCN(c2ncccn2)C1 [Compound 13] | 0.00047 | 0.26 kcal/mol per non-hydrogen atom | 
14 | CN1CC=C(c2c(C3CC3)[nH]c3ncccc23)CC1 [Compound 14] | 0.0087 | 0.19 kcal/mol per non-hydrogen atom | fold weaker IC50 / loss in potency compared to the screening hit (EcIspE [1]): 5.8 fold
15 | c1ccc(C[n+]2cccc3cc[nH]c32)cc1 [Compound 15] |  |  | solubility [2]: 1000 to 5000 µM
16 | CC(C)c1cc2cccnc2n1CCCN [Compound 16] |  |  | solubility [2]: 1000 to 5000 µM (≈ 217 to 1090 µg/mL)
17 | CC(C)c1cc2cccnc2n1CCC(=O)O [Compound 17] |  |  | solubility [2]: 1000 to 5000 µM (≈ 232 to 1160 µg/mL)
18 | Cc1[nH]c2ccccc2c1C(Nc1ccccn1)c1cccc(Cl)c1 (centres unmarked) [Compound 18] |  | 0.21 kcal/mol per non-hydrogen atom | 
19 | Cc1[nH]c2ccccc2c1C(Nc1ccccn1)c1ccccc1Cl (centres unmarked) [Compound 19] | 0.0024 | 0.18 kcal/mol per non-hydrogen atom | 
20 | Cc1[nH]c2ccccc2c1C(Nc1cccc(Cl)c1)c1ccccn1 (centres unmarked) [Compound 20] | 0.0025 | 0.18 kcal/mol per non-hydrogen atom | fold weaker IC50 / loss in potency compared to the screening hit (EcIspE [1]): 130 fold
21 | COc1ccc(-n2c(-c3cccnc3)nc3ccccc3c2=O)cc1 [Compound 21] | 2.7e-05 | 0.28 kcal/mol per non-hydrogen atom | fold weaker IC50 / loss in potency compared to the screening hit (EcIspE [1]): 11 fold
22 | O=c1c2ccccc2nc(-c2ccccn2)n1-c1ccccc1 [Compound 22] | 0.00018 | 0.26 kcal/mol per non-hydrogen atom | 
23 | COc1ccc(-n2c(-c3ccncc3)nc3ccccc3c2=O)cc1 [Compound 23] | 0.00032 | 0.23 kcal/mol per non-hydrogen atom | 
24 | Nc1ccn([C@@H]2O[C@H](CNC(=O)Cc3nc4ccccc4[nH]3)[C@@H](O)[C@H]2O)c(=O)n1 [a] |  |  | IC50 (EcIspE [3]): 2 mM
25 | Nc1ccn([C@@H]2O[C@H](CNC(=O)CCc3nc4ccccc4[nH]3)[C@@H](O)[C@H]2O)c(=O)n1 [b] |  |  | IC50 (EcIspE [3]): 2 mM
26 | O=C1Cc2c([nH]c3ccc(Br)cc23)-c2ccccc2N1 [kenpaullone, reference compound] |  |  | EcIspE inhibition at 100 µM (EcIspE [1]): none of the compounds showed any EcIspE inhibition
27 | CN[C@@H]1C[C@H]2O[C@@](C)([C@@H]1OC)n1c3ccccc3c3c4c(c5c6ccccc6n2c5c31)C(=O)NC4 [staurosporine, reference compound] |  |  | EcIspE inhibition at 100 µM (EcIspE [1]): none of the compounds showed any EcIspE inhibition
28 | purvalanol [reference compound] |  |  | EcIspE inhibition at 100 µM (EcIspE [1]): none of the compounds showed any EcIspE inhibition
